The source of these data is article PMC12775124, “CUL4A-DDB1-DCAF10 is an N-recognin for N-terminally acetylated Src kinases” (Nature Communications, 2026).

One experiment concerns DCAF10. The experiment is described as follows: Peptide pull-down with quantitative MS, HeLa lysate, DCAF10. It is filed as binding, human (HeLa). To be noted: HeLa lysate; for DCAF10 binding (in words): Nt-Ac vs Nt-free peptides.
Another experiment deals with GST-DCAF10. The experiment is described as follows: Streptavidin pull-down of GST-DCAF10 with biotinylated Nt-peptides. It counts as binding, human. As to conditions: 0.5 µM GST-DCAF10, 5 µM peptide, 1 h RT, WB. On the procedure:
To confirm direct interactions between peptides and DCAF10, we performed pull-down assays using bead-bound Nt-peptide variants incubated with purified full-length GST-DCAF10 or GST as a negative control (Fig. 2m–p and Supplementary Fig. 4a).
230 of 1:100), and desalted/concentrated on C18 reversed phase stage tips as previously
MS measurements settings are stated in MS measurements and raw file
BL21(DE3) cells (Thermo Fisher Scientific,
240 agar) plate containing 100 μg/mL ampicillin and 34 μg/mL chloramphenicol, then
Terrific broth (TB) medium (24 g/L yeast extract,
243 20 g/L tryptone, glycerol 4 mL/L, 100 mL/L phosphate buffer containing 0.17 M KH2PO4
244 and 0.72 M K2HPO4) was used to prepare a 1:100 dilution of the starter culture, and OD600
At OD600 = 1, protein induction was initiated by adding 1 mM
247 day, pellets were homogenized and lysed in glycerol lysis buffer (20 mM Tris-HCl pH
Lysis was performed on ice for 30 min, followed by
250 sonication (7 × 20 sec pulses with 20 sec breaks on ice) using a Bandelin sonoplus
Lysates were centrifuged at 4°C for 1 h
253 medium culture was lysed in 20 mL of supernatant (collected in 20 × 1 mL tubes). GST
255 agarose bead; Thermo Fisher Scientific, Waltham, MA, USA). For each 1 mL of
100 μL of GST magnetic beads
257 were washed twice with 500 μL of wash buffer (125 mM Tris-HCl pH 7.4, 150 mM NaCl,
The lysis supernatant was diluted 1:1 with
259 wash buffer, and incubated with the beads on an end-over-end rotator for 1 h at 25°C.
260 After incubation, the supernatant was removed, and the beads were washed twice with
Protein elution was then performed by incubating
263 pH 7.4, 250 mM NaCl, 0.3% Triton X-100) for 30 min at 25°C on an end-over-end rotator.
265 under the same conditions. Elution fractions were pooled and concentrated by
266 centrifugation (4°C, 25 min, 4500 rpm) using a 30 kDa cut-off concentrator (Merck
267 Millipore, #UFC803008, Darmstadt, Germany). Purified proteins were analyzed by
268 colloidal Coomassie stain, WB and MS.
270 Streptavidin pull-downs with GST-DCAF10 and biotinylated peptides
271 Streptavidin magnetic beads (DynabeadsTM MyOneTM Streptavidin T1; Thermo Fisher
272 Scientific, Waltham, MA, USA) were washed twice with 500 μL of wash buffer (125 mM
273 Tris-HCl pH 7.4, 150 mM NaCl, 0.1% Triton X-100). An excess of peptides was added
274 (to ensure full occupancy of the beads) and incubated for 30 min at RT. After peptide
275 binding, beads were again washed three times with 500 μL of wash buffer. The pull-down
276 was then performed in a 100 μL reaction volume with final concentrations of 0.5 µM
277 GST-DCAF10 and 5 µM peptide. GST-DCAF10 or GST alone (as a control) was added
278 to the peptide-streptavidin beads and incubated on a rotator for 1 h at RT. After incubation,
279 the beads were washed three times with 500 μL of wash buffer and resuspended in 4x
280 Laemmli buffer. 1/5 of the input (GST-DCAF10 and GST) and 9/10 of the sample were
281 loaded on a 10% SDS gel and blotted with anti-GST and anti-DCAF10 antibodies, while
282 1/10 was loaded on a 15% SDS gel and blotted with anti-streptavidin antibody to assess
283 equal peptide loading.
285 Streptavidin Sepharose High Performance, GE Healthcare, Chicago, IL, USA) were used.
286 After washing with a high salt wash buffer without detergents (125 mM Tris-HCl pH 7.4,
287 400 mM NaCl), an excess of peptides was added and incubated for 30 min at RT. For each
288 reaction, 10 µL of slurry beads were used. After peptide-binding, beads were again
289 washed once with a high salt wash buffer without detergents and twice with binding buffer
290 without detergents (125 mM Tris-HCl pH 7.4, 150 mM NaCl). The pull-downs were
291 performed in a 100 μL reaction volume in binding buffer without detergents with a final
292 concentration of 0.5 µM GST-DCAF10 and incubated rotating for 1 h at RT. After
293 incubation, the beads were washed five times with 500 μL of high salt wash buffer without […]

The test system of experiment [1] is DLD-1 Flp-In T-REx and Lyn KO cells. The experiment is described as follows: Level of Lyn / Lyn-GFP variants after NMT1/2 and DCAF10 siRNA, Western blot. It counts as cell-based, human. To be noted: WB/vinculin, n = 3. An excerpt: To further investigate the role of the Nt-amino acid and its modification in DCAF10 recognition and DCAF10-dependent ubiquitination, we used the CRISPR/Cas9 technique to knock out Lyn in DLD-1 cell lines with T-REx Flp-In background (DLD-1 Lyn KO Flp-In T-REx) (Supplementary Fig. 7a–c). We then integrated Lyn^WT-GFP and two Nt-mutants (Lyn^G2A-GFP and Lyn^G2P-GFP) under a doxycycline-inducible promoter into the Flp-In cassette. Alanine (G2A) is expected to be efficiently acetylated by NatA, generating an Nt-acetylated Lyn mutant. Conversely, the proline (G2P) mutant, is expected not to be acetylated and may retain a free N-terminus[3],[36],[37]. Doxycycline-induced expression of Lyn^WT-GFP, Lyn^G2A-GFP, and Lyn^G2P-GFP was confirmed by Western blot, MS, and fluorescence microscopy (Supplementary Figs. 7d, e; 8a and Supplementary Data 6). While all constructs were ~2–5-fold higher expressed than endogenous Lyn, G2A and G2P were further elevated relative to WT, which may reflect increased stability when Nt-Gly/acetylation is altered (Supplementary Fig. 7e). […] Lyn^WT-GFP mirrored the behavior of endogenous Lyn under NMT1/2 siRNA treatment. Lyn levels decreased with NMT1/2 KD, but were rescued when siRNAs targeting both NMT1/2 and DCAF10 were applied (Fig. 6a, b). […] The weaker reduction of Lyn^WT-GFP may result from Lyn overexpression and the limiting availability of DCAF10.
Fig. 6 N-terminal glycine mutation abolishes DCAF10-dependent stability and ubiquitination. a DLD-1 Flp-In T-REx cells and Lyn KO cells expressing Lyn^WT-GFP, Lyn^G2A-GFP, or Lyn^G2P-GFP were induced for 24 h with 100 ng/mL doxycycline. Cells were treated with NMT1/2 siRNA, DCAF10 siRNA, or both (or left untreated) for 72 h. Representative WBs are shown. Filled circles represent siRNA treatment, empty circles untreated. b WB quantifications of Lyn levels normalized to vinculin. Purple: untreated with NMT1/2 siRNA; blue: treated with NMT1/2 siRNA. Mean ± s.d. with individual data points are shown (n = 3 independent biological replicates). c Schematic of ubiquitination experiments. Created in BioRender. […] Lysates have been treated with NMT1/2 RNAi for 72 h. i Quantification of in vitro ubiquitination assays. Mean ± s.d. with individual data points are shown (n = 3 independent ubiquitination assays). Volcano plots of Lyn-GFP^WT binding partners: j NMT1/2 siRNA ± doxycycline (Dox); k Control ± doxycycline; l NMT1/2 siRNA vs. control both with doxycycline. The −log10 adjusted p-value (two-sided Student’s t test with permutation-based multiple-testing correction; y-axis) is plotted against the log2 fold change (x-axis). Threshold for significance: −log10 p-value ≥ 1.3 (p ≤ 0.05), log2 fold change ≤ −1 or ≥ 1. DCAF10 and Lyn-GFP are marked in green, significant binding partners in purple and in blue, respectively. Source data are provided as a Source data file.
DLD-1 Lyn knockout (KO) Flp-In T-REx cells were generated by CRISPR/Cas9 electroporation using two guide RNAs targeting the LYN locus. Editing and clone validation were confirmed by genomic sequencing, Western blotting, and MS[51]. Stable cell lines expressing doxycycline-inducible Lyn-GFP (WT, G2A, or G2P) were established by FRT/Flp-mediated recombination and validated by antibiotic selection, Western blotting, and fluorescence microscopy. Detailed protocols are provided in the Supplementary Methods and Tables.
461 electroporated using the CM137 program. Following electroporation, the cells were kept […]
(Immunoblotting shows a protein as a band on a membrane.)

As for “GCVQCKDKEAKK [Ac-Fyn, Nt-peptide of Fyn, Nt-acetylated]”, in the experiment on DCAF10, the “DCAF10 binding, Nt-Ac vs Nt-Myr (in words)” value was “DCAF10 selectively recognizes the acetylated form” and the “DCAF10 binding (in words)” value is on record as “bound to DCAF10”. Further, in the experiment with GST-DCAF10 (listed as Nt-acetylated Fyn), the “Binding to GST-DCAF10 (in words)” value is recorded as “bound robustly to GST-DCAF10”.

Consider “endogenous Lyn: endogenous Lyn kinase of DLD-1 cells”, for which the “Level decrease following NMT1/2 KD” value in experiment [1] (DLD-1, 72 h NMT1/2 siRNA, 24 h doxycycline 100 ng/mL, average) worked out at 31%. Besides, in experiment [1] (DLD-1, 72 h siRNA), the “Level increase upon combined NMT1/2 and DCAF10 KD” value worked out at 36.5%.

Turning to “GAVTDDEVIRKK [Ac-THOC7, Nt-peptide of THOC7, Nt-acetylated]”, in the experiment with DCAF10, the “DCAF10 binding (in words)” value is on record as “did not bind DCAF10 significantly”. In the experiment on GST-DCAF10, the “Binding to GST-DCAF10 (in words)” value was “neither Nt-acetylated nor Nt-free THOC7 peptides or GST alone bound DCAF10”.
